Measured values taken from ChEMBL document CHEMBL1671662, “In vitro activities of telavancin and six comparator agents against anaerobic bacterial isolates” (2009).
Converted amounts (≈) assume the structure as drawn.

Key:
[1] = test system: [Clostridium] innocuum; assay: Antibacterial activity against Clostridium innocuum by CLSI M11-A6 agar dilution method; format: functional
[2] = test system: Clostridium perfringens; assay: Antibacterial activity against Clostridium perfringens by CLSI M11-A6 agar dilution method; format: functional
[3] = test system: Thomasclavelia ramosa; assay: Antibacterial activity against Clostridium ramosum by CLSI M11-A6 agar dilution method; format: functional
[4] = test system: Clostridium bartlettii; assay: Antibacterial activity against Clostridium bartlettii by CLSI M11-A6 agar dilution method; format: functional; conditions: Intestinibacter bartlettii
[5] = test system: Paraclostridium bifermentans; assay: Antibacterial activity against Clostridium bifermentans by CLSI M11-A6 agar dilution method; format: functional
[6] = test system: Clostridium butyricum; assay: Antibacterial activity against Clostridium butyricum by CLSI M11-A6 agar dilution method; format: functional
[7] = test system: Clostridium disporicum; assay: Antibacterial activity against Clostridium disporicum by CLSI M11-A6 agar dilution method; format: functional
[8] = test system: Clostridium glycolicum; assay: Antibacterial activity against Clostridium glycolicum by CLSI M11-A6 agar dilution method; format: functional; conditions: Terrisporobacter glycolicus
[9] = test system: Clostridium; assay: Antibacterial activity against Clostridium hypermegas by CLSI M11-A6 agar dilution method; format: functional
[10] = test system: Flavonifractor plautii; assay: Antibacterial activity against Clostridium orbiscindens by CLSI M11-A6 agar dilution method; format: functional
[11] = test system: Clostridium paraputrificum; assay: Antibacterial activity against Clostridium paraputrificum by CLSI M11-A6 agar dilution method; format: functional
[12] = test system: Clostridium scindens; assay: Antibacterial activity against Clostridium scindens by CLSI M11-A6 agar dilution method; format: functional
[13] = test system: Clostridium spiroforme; assay: Antibacterial activity against Clostridium spiroforme by CLSI M11-A6 agar dilution method; format: functional; conditions: Thomasclavelia spiroformis
[14] = test system: Clostridium tertium; assay: Antibacterial activity against Clostridium tertium by CLSI M11-A6 agar dilution method; format: functional
[15] = test system: Actinomyces naeslundii; assay: Antibacterial activity against Actinomyces naeslundii by CLSI M11-A6 agar dilution method; format: functional
[16] = test system: Bifidobacterium adolescentis; assay: Antibacterial activity against Bifidobacterium adolescentis by CLSI M11-A6 agar dilution method; format: functional
[17] = test system: Bifidobacterium breve; assay: Antibacterial activity against Bifidobacterium breve by CLSI M11-A6 agar dilution method; format: functional
[18] = Antibacterial activity against Bifidobacterium infantis by CLSI M11-A6 agar dilution method; format: functional, Bifidobacterium longum subsp. infantis; conditions: Bifidobacterium longum
[19] = test system: Bifidobacterium longum; assay: Antibacterial activity against Bifidobacterium longum by CLSI M11-A6 agar dilution method; format: functional
[20] = test system: Catenibacterium mitsuokai; assay: Antibacterial activity against Catenibacterium mitsuokai by CLSI M11-A6 agar dilution method; format: functional
[21] = test system: Collinsella aerofaciens; assay: Antibacterial activity against Colinsella aerofaciens by CLSI M11-A6 agar dilution method; format: functional
[22] = test system: Holdemania filiformis; assay: Antibacterial activity against Holdemania filiformis by CLSI M11-A6 agar dilution method; format: functional
[23] = test system: Ruminococcus flavefaciens; assay: Antibacterial activity against Ruminococcus flavefaciens by CLSI M11-A6 agar dilution method; format: functional
[24] = test system: Ruminococcus sp.; assay: Antibacterial activity against Ruminococcus sp. by CLSI M11-A6 agar dilution method; format: functional
[25] = test system: Anaerococcus prevotii; assay: Antibacterial activity against Anaerococcus prevotii by CLSI M11-A6 agar dilution method; format: functional
[26] = test system: Anaerococcus tetradius; assay: Antibacterial activity against Anaerococcus tetradius by CLSI M11-A6 agar dilution method; format: functional
[27] = test system: Streptococcus constellatus; assay: Antibacterial activity against Streptococcus constellatus by CLSI M11-A6 agar dilution method; format: functional
[28] = test system: Streptococcus intermedius; assay: Antibacterial activity against Streptococcus intermedius by CLSI M11-A6 agar dilution method; format: functional
[29] = test system: Bacteroides fragilis; assay: Antibacterial activity against Bacteroides fragilis by CLSI M11-A6 agar dilution method; format: functional
[30] = test system: Phocaeicola vulgatus; assay: Antibacterial activity against Bacteroides vulgatus by CLSI M11-A6 agar dilution method; format: functional
[31] = test system: Odoribacter splanchnicus; assay: Antibacterial activity against Bacteroides splanchnicus by CLSI M11-A6 agar dilution method; format: functional
[32] = test system: Fusobacterium mortiferum; assay: Antibacterial activity against Fusobacterium mortiferum by CLSI M11-A6 agar dilution method; format: functional
[33] = test system: Fusobacterium varium; assay: Antibacterial activity against Fusobacterium varium by CLSI M11-A6 agar dilution method; format: functional
[34] = test system: Prevotella buccae; assay: Antibacterial activity against Prevotella buccae by CLSI M11-A6 agar dilution method; format: functional; conditions: Segatella buccae
[35] = test system: Prevotella denticola; assay: Antibacterial activity against Prevotella P denticola by CLSI M11-A6 agar dilution method; format: functional
[36] = test system: Prevotella disiens; assay: Antibacterial activity against Prevotella P disiens by CLSI M11-A6 agar dilution method; format: functional
[37] = test system: Prevotella intermedia; assay: Antibacterial activity against Prevotella P intermedia by CLSI M11-A6 agar dilution method; format: functional
[38] = test system: Prevotella intermedia; assay: Antibacterial activity against Prevotella intermedia by CLSI M11-A6 agar dilution method; format: functional
[39] = test system: Prevotella melaninogenica; assay: Antibacterial activity against Prevotella melaninogenica by CLSI M11-A6 agar dilution method; format: functional

CN[C@H](CC(C)C)C(=O)N[C@H]1C(=O)N[C@@H](CC(N)=O)C(=O)N[C@H]2C(=O)N[C@H]3C(=O)N[C@H](C(=O)N[C@H](C(=O)O)c4cc(O)cc(O)c4-c4cc3ccc4O)[C@H](O)c3ccc(c(Cl)c3)Oc3cc2cc(c3O[C@@H]2O[C@H](CO)[C@@H](O)[C@H](O)[C@H]2O[C@H]2C[C@](C)(N)[C@H](O)[C@H](C)O2)Oc2ccc(cc2Cl)[C@H]1O [VANCOMYCIN]
MIC [1]: 16 µg/mL (≈ 11 µM) | MIC50 [1]: 16 µg/mL (≈ 11 µM) | MIC90 [1]: 16 µg/mL (≈ 11 µM) | MIC [2]: 0.5 µg/mL (≈ 0.345 µM) | MIC50 [2]: 0.5 µg/mL (≈ 0.345 µM) | MIC90 [2]: 1 µg/mL (≈ 0.69 µM) | MIC50 [3]: 8 µg/mL (≈ 5.52 µM) | MIC90 [3]: 8 µg/mL (≈ 5.52 µM) | MIC50 [4]: 1 µg/mL (≈ 0.69 µM) | MIC90 [4]: 4 µg/mL (≈ 2.76 µM) | MIC50 [5]: 1 µg/mL (≈ 0.69 µM) | MIC90 [5]: 4 µg/mL (≈ 2.76 µM) | MIC50 [6]: 1 µg/mL (≈ 0.69 µM) | MIC90 [6]: 4 µg/mL (≈ 2.76 µM) | MIC50 [7]: 1 µg/mL (≈ 0.69 µM) | MIC90 [7]: 4 µg/mL (≈ 2.76 µM) | MIC50 [8]: 1 µg/mL (≈ 0.69 µM) | MIC90 [8]: 4 µg/mL (≈ 2.76 µM) | MIC50 [9]: 1 µg/mL (≈ 0.69 µM) | MIC90 [9]: 4 µg/mL (≈ 2.76 µM) | MIC50 [10]: 1 µg/mL (≈ 0.69 µM) | MIC90 [10]: 4 µg/mL (≈ 2.76 µM) | MIC50 [11]: 1 µg/mL (≈ 0.69 µM) | MIC90 [11]: 4 µg/mL (≈ 2.76 µM) | MIC50 [12]: 1 µg/mL (≈ 0.69 µM) | MIC90 [12]: 4 µg/mL (≈ 2.76 µM) | MIC50 [13]: 1 µg/mL (≈ 0.69 µM) | MIC90 [13]: 4 µg/mL (≈ 2.76 µM) | MIC50 [14]: 1 µg/mL (≈ 0.69 µM) | MIC90 [14]: 4 µg/mL (≈ 2.76 µM) | MIC50 [15]: 0.5 µg/mL (≈ 0.345 µM) | MIC90 [15]: 4 µg/mL (≈ 2.76 µM) | MIC50 [16]: 0.5 µg/mL (≈ 0.345 µM) | MIC90 [16]: 4 µg/mL (≈ 2.76 µM) | MIC50 [17]: 0.5 µg/mL (≈ 0.345 µM) | MIC90 [17]: 4 µg/mL (≈ 2.76 µM) | MIC50 [18]: 0.5 µg/mL (≈ 0.345 µM) | MIC90 [18]: 4 µg/mL (≈ 2.76 µM) | MIC50 [19]: 0.5 µg/mL (≈ 0.345 µM) | MIC90 [19]: 4 µg/mL (≈ 2.76 µM) | MIC50 [20]: 0.5 µg/mL (≈ 0.345 µM) | MIC90 [20]: 4 µg/mL (≈ 2.76 µM) | MIC50 [21]: 0.5 µg/mL (≈ 0.345 µM) | MIC90 [21]: 4 µg/mL (≈ 2.76 µM) | MIC50 [22]: 0.5 µg/mL (≈ 0.345 µM) | MIC90 [22]: 4 µg/mL (≈ 2.76 µM) | MIC50 [23]: 0.5 µg/mL (≈ 0.345 µM) | MIC90 [23]: 1 µg/mL (≈ 0.69 µM) | MIC50 [24]: 0.5 µg/mL (≈ 0.345 µM) | MIC90 [24]: 1 µg/mL (≈ 0.69 µM) | MIC50 [25]: 0.5 µg/mL (≈ 0.345 µM) | MIC90 [25]: 1 µg/mL (≈ 0.69 µM) | MIC50 [26]: 0.5 µg/mL (≈ 0.345 µM) | MIC90 [26]: 1 µg/mL (≈ 0.69 µM) | MIC50 [27]: 2 µg/mL (≈ 1.38 µM) | MIC90 [27]: 2 µg/mL (≈ 1.38 µM) | MIC50 [28]: 2 µg/mL (≈ 1.38 µM) | MIC90 [28]: 2 µg/mL (≈ 1.38 µM) | MIC50 [29]: 64 µg/mL (≈ 44.2 µM) | MIC90 [29]: 64 µg/mL (≈ 44.2 µM) | MIC50 [30]: 64 µg/mL (≈ 44.2 µM) | MIC90 [30]: 128 µg/mL (≈ 88.3 µM) | MIC50 [31]: 128 µg/mL (≈ 88.3 µM) | MIC90 [31]: > 128 µg/mL | MIC [32]: > 128 µg/mL | MIC50 [32]: > 128 µg/mL | MIC90 [32]: > 128 µg/mL | MIC [33]: > 128 µg/mL | MIC50 [33]: > 128 µg/mL | MIC90 [33]: > 128 µg/mL | MIC50 [34]: 32 µg/mL (≈ 22.1 µM) | MIC90 [34]: > 128 µg/mL | MIC50 [35]: 32 µg/mL (≈ 22.1 µM) | MIC90 [35]: > 128 µg/mL | MIC50 [36]: 32 µg/mL (≈ 22.1 µM) | MIC90 [36]: > 128 µg/mL | MIC50 [37]: 32 µg/mL (≈ 22.1 µM) | MIC90 [37]: > 128 µg/mL | MIC50 [38]: 32 µg/mL (≈ 22.1 µM) | MIC90 [38]: > 128 µg/mL | MIC50 [39]: 32 µg/mL (≈ 22.1 µM) | MIC90 [39]: > 128 µg/mL
